Assays:
human spermatozoa [1] = test: hyperactivated motile sperm, percent change vs DMSO (capacitating); higher = more of the measured sperm population than DMSO, for viability, fewer PI-positive (dead) cells than DMSO; details: incubation time: 30min incubation
HeLa [2] = test: HeLa toxicity: nuclei-count effect normalised to DMSO (DMSO = 0); higher = more features changed / larger toxic effect; details: incubation time: 24h incubation
human spermatozoa [3] = test: viability fold change, 1 - (PI-positive fraction / DMSO median); higher = more of the measured sperm population than DMSO, for viability, fewer PI-positive (dead) cells than DMSO; details: incubation time: 3h, non-capacitating
human spermatozoa [4] = test: acrosome-reacted (PNA+) sperm after agonist cocktail, percent change vs DMSO (capacitating); higher = more of the measured sperm population than DMSO, for viability, fewer PI-positive (dead) cells than DMSO; details: incubation time: 3h, capacitating + agonist cocktail 1h
human spermatozoa [5] = test: progressively motile sperm, percent change vs DMSO (capacitating); higher = more of the measured sperm population than DMSO, for viability, fewer PI-positive (dead) cells than DMSO; details: incubation time: 30min incubation
human spermatozoa [6] = test: total motile sperm, percent change vs DMSO (non-capacitating); higher = more of the measured sperm population than DMSO, for viability, fewer PI-positive (dead) cells than DMSO
HepG2 = HepG2 toxicity (resazurin), effect normalised to DMSO (DMSO = 0); higher = more features changed / larger toxic effect; details: incubation time: 70h incubation
human spermatozoa [7] = test: change in acrosome-reacted (PNA+) sperm vs DMSO, no agonist (capacitating); higher = more of the measured sperm population than DMSO, for viability, fewer PI-positive (dead) cells than DMSO; details: incubation time: 3h
HeLa [8] = test: Cell Painting percent induction (share of features beyond 2 z-scores vs DMSO); higher = more features changed / larger toxic effect; extreme values may be limits of the assay; details: incubation time: 24h incubation
human spermatozoa [9] = test: progressively motile sperm, percent change vs DMSO (non-capacitating); higher = more of the measured sperm population than DMSO, for viability, fewer PI-positive (dead) cells than DMSO; extreme values may be limits of the assay
[10] = incubation time: 10min incubation, 9.99 µM
[11] = incubation time: 10min incubation, 29.9 µM
[12] = incubation time: 3h incubation, 9.99 µM
[13] = incubation time: 3h incubation, 29.9 µM
[14] = incubation time: 6h incubation, 9.99 µM
[15] = incubation time: 6h incubation, 29.9 µM
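Throughout, for progressively motile sperm, percent change vs DMSO (non-capacitating): pooled live human sperm from at least 3 donors, tracked by automated microscopy in 0.5 s time-lapse movies, compounds at 10 and 30 µM, versus median of 16 DMSO wells per plate.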
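Throughout, for total motile sperm, percent change vs DMSO (non-capacitating): sperm pooled from at least 3 donors, tracked in 0.5 s time-lapse movies by automated microscopy after 10 min, 3 h or 6 h with compound at 10 or 30 µM.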

## CNC(=O)c1ccccc1Nc1nc(Nc2ccc(N3CCOCC3)cc2OC)ncc1Cl [TAE226]
Human spermatozoa [1]; 9.99 µM
  hyperactivated motile sperm: 137%
Human spermatozoa [1]; 29.9 µM
  hyperactivated motile sperm: 34.1%
HeLa [2]; 9.99 µM
  HeLa toxicity: nuclei-count effect normalised: 45.5%
HeLa [2]; 29.9 µM
  HeLa toxicity: nuclei-count effect normalised: 83.4%
Human spermatozoa [3]; 9.99 µM
  viability fold change: -0.257
Human spermatozoa [3]; 29.9 µM
  viability fold change: 0.581
Human spermatozoa [4]; 9.99 µM
  acrosome-reacted: 10.7%
Human spermatozoa [4]; 29.9 µM
  acrosome-reacted: 31.6%
Human spermatozoa [5]; 9.99 µM
  progressively motile sperm: -5.22%
Human spermatozoa [5]; 29.9 µM
  progressively motile sperm: -5.06%
Human spermatozoa [6]; [10]
  total motile sperm: 0.613%
Human spermatozoa [6]; [11]
  total motile sperm: 1.31%
Human spermatozoa [6]; [12]
  total motile sperm: -18.9%
Human spermatozoa [6]; [13]
  total motile sperm: -22.2%
Human spermatozoa [6]; [14]
  total motile sperm: -16.2%
Human spermatozoa [6]; [15]
  total motile sperm: -14.9%
HepG2; 10 µM
  HepG2 toxicity: 92.5%
HepG2; 30 µM
  HepG2 toxicity: 99.8%
Human spermatozoa [7]; 9.99 µM
  change in acrosome-reacted: 1.37%
Human spermatozoa [7]; 29.9 µM
  change in acrosome-reacted: 1.97%
HeLa [8]; 9.99 µM
  Cell Painting percent induction: 1.84%
HeLa [8]; 29.9 µM
  Cell Painting percent induction: 21.1%
Human spermatozoa [9]; [10]
  progressively motile sperm: 30.1%
Human spermatozoa [9]; [11]
  progressively motile sperm: 34.5%
Human spermatozoa [9]; [12]
  progressively motile sperm: 9.37%
Human spermatozoa [9]; [13]
  progressively motile sperm: 3.96%
Human spermatozoa [9]; [14]
  progressively motile sperm: 25.7%
Human spermatozoa [9]; [15]
  progressively motile sperm: 23.8%

## CCOc1ccccc1OCCN[C@H](C)Cc1ccc(OC)c(S(N)(=O)=O)c1 [Tamsulosin]
Human spermatozoa [1]; 9.99 µM
  hyperactivated motile sperm: 26%
Human spermatozoa [1]; 29.9 µM
  hyperactivated motile sperm: 16.1%
HeLa [2]; 9.99 µM
  HeLa toxicity: nuclei-count effect normalised: -2.07%
HeLa [2]; 29.9 µM
  HeLa toxicity: nuclei-count effect normalised: 2.87%
Human spermatozoa [3]; 9.99 µM
  viability fold change: -0.468
Human spermatozoa [3]; 29.9 µM
  viability fold change: -0.658
Human spermatozoa [4]; 9.99 µM
  acrosome-reacted: 8.46%
Human spermatozoa [4]; 29.9 µM
  acrosome-reacted: 14.3%
Human spermatozoa [5]; 9.99 µM
  progressively motile sperm: 7.35%
Human spermatozoa [5]; 29.9 µM
  progressively motile sperm: 14.8%
Human spermatozoa [6]; [10]
  total motile sperm: 4.75%
Human spermatozoa [6]; [11]
  total motile sperm: 4.64%
Human spermatozoa [6]; [12]
  total motile sperm: 1.09%
Human spermatozoa [6]; [13]
  total motile sperm: 4.59%
Human spermatozoa [6]; [14]
  total motile sperm: 2.47%
Human spermatozoa [6]; [15]
  total motile sperm: 0.434%
HepG2; 10 µM
  HepG2 toxicity: -2.54%
HepG2; 30 µM
  HepG2 toxicity: 9.76%
Human spermatozoa [7]; 9.99 µM
  change in acrosome-reacted: 0.811%
Human spermatozoa [7]; 29.9 µM
  change in acrosome-reacted: 1.12%
HeLa [8]; 9.99 µM
  Cell Painting percent induction: 0%
HeLa [8]; 29.9 µM
  Cell Painting percent induction: 0%
Human spermatozoa [9]; [10]
  progressively motile sperm: 3.42%
Human spermatozoa [9]; [11]
  progressively motile sperm: 13.4%
Human spermatozoa [9]; [12]
  progressively motile sperm: 17.3%
Human spermatozoa [9]; [13]
  progressively motile sperm: 20.7%
Human spermatozoa [9]; [14]
  progressively motile sperm: 23.6%
Human spermatozoa [9]; [15]
  progressively motile sperm: 26.5%

## COC(=O)[C@]1(C)CC[C@]2(C)CC[C@]3(C)C4=CC=C5C(=CC(=O)C(O)=C5C)[C@]4(C)CC[C@@]3(C)[C@@H]2C1 [Pristimerin]
Human spermatozoa [1]; 9.99 µM
  hyperactivated motile sperm: -72.5%
Human spermatozoa [1]; 29.9 µM
  hyperactivated motile sperm: -73.6%
HeLa [2]; 9.99 µM
  HeLa toxicity: nuclei-count effect normalised: 98.7%
HeLa [2]; 29.9 µM
  HeLa toxicity: nuclei-count effect normalised: 98.7%
Human spermatozoa [3]; 9.99 µM
  viability fold change: -0.933
Human spermatozoa [3]; 29.9 µM
  viability fold change: -1.2
Human spermatozoa [4]; 9.99 µM
  acrosome-reacted: -52.1%
Human spermatozoa [4]; 29.9 µM
  acrosome-reacted: -57.5%
Human spermatozoa [5]; 9.99 µM
  progressively motile sperm: -74.5%
Human spermatozoa [5]; 29.9 µM
  progressively motile sperm: -96.6%
Human spermatozoa [6]; [10]
  total motile sperm: -50.2%
Human spermatozoa [6]; [11]
  total motile sperm: -83.1%
Human spermatozoa [6]; [12]
  total motile sperm: -90.8%
Human spermatozoa [6]; [13]
  total motile sperm: -88.7%
Human spermatozoa [6]; [14]
  total motile sperm: -92.1%
Human spermatozoa [6]; [15]
  total motile sperm: -85.4%
HepG2; 10 µM
  HepG2 toxicity: 103%
HepG2; 30 µM
  HepG2 toxicity: 103%
Human spermatozoa [7]; 9.99 µM
  change in acrosome-reacted: 3.63%
Human spermatozoa [7]; 29.9 µM
  change in acrosome-reacted: 6.18%
HeLa [8]; 9.99 µM
  Cell Painting percent induction: 46.9%
HeLa [8]; 29.9 µM
  Cell Painting percent induction: 38.9%
Human spermatozoa [9]; [10]
  progressively motile sperm: -86.8%
Human spermatozoa [9]; [11]
  progressively motile sperm: -99.9%
Human spermatozoa [9]; [12]
  progressively motile sperm: -100%
Human spermatozoa [9]; [13]
  progressively motile sperm: -100%
Human spermatozoa [9]; [14]
  progressively motile sperm: -100%
Human spermatozoa [9]; [15]
  progressively motile sperm: -99.9%

## CC(C)C(C(=O)OC(C#N)c1cccc(Oc2ccccc2)c1)c1ccc(Cl)cc1 (configuration not stated) [Fenvalerate]
Human spermatozoa [1]; 9.99 µM
  hyperactivated motile sperm: -11.7%
Human spermatozoa [1]; 29.9 µM
  hyperactivated motile sperm: -10.3%
HeLa [2]; 9.99 µM
  HeLa toxicity: nuclei-count effect normalised: 8.15%
HeLa [2]; 29.9 µM
  HeLa toxicity: nuclei-count effect normalised: 4.61%
Human spermatozoa [3]; 9.99 µM
  viability fold change: -0.675
Human spermatozoa [3]; 29.9 µM
  viability fold change: 0.413
Human spermatozoa [4]; 9.99 µM
  acrosome-reacted: 16%
Human spermatozoa [4]; 29.9 µM
  acrosome-reacted: 11.8%
Human spermatozoa [5]; 9.99 µM
  progressively motile sperm: -16%
Human spermatozoa [5]; 29.9 µM
  progressively motile sperm: -21.3%
Human spermatozoa [6]; [10]
  total motile sperm: -12.2%
Human spermatozoa [6]; [11]
  total motile sperm: -13.5%
Human spermatozoa [6]; [12]
  total motile sperm: -9.13%
Human spermatozoa [6]; [13]
  total motile sperm: -13%
Human spermatozoa [6]; [14]
  total motile sperm: -6.57%
Human spermatozoa [6]; [15]
  total motile sperm: -13.4%
HepG2; 10 µM
  HepG2 toxicity: 6.05%
HepG2; 30 µM
  HepG2 toxicity: -6.97%
Human spermatozoa [7]; 9.99 µM
  change in acrosome-reacted: 1.05%
Human spermatozoa [7]; 29.9 µM
  change in acrosome-reacted: 0.945%
HeLa [8]; 9.99 µM
  Cell Painting percent induction: 0%
HeLa [8]; 29.9 µM
  Cell Painting percent induction: 0.036%
Human spermatozoa [9]; [10]
  progressively motile sperm: -11.9%
Human spermatozoa [9]; [11]
  progressively motile sperm: -13.7%
Human spermatozoa [9]; [12]
  progressively motile sperm: 3.76%
Human spermatozoa [9]; [13]
  progressively motile sperm: -3.88%
Human spermatozoa [9]; [14]
  progressively motile sperm: 11.3%
Human spermatozoa [9]; [15]
  progressively motile sperm: 5.45%

Reference: the supplement of paper PMC10878532, “Sperm Toolbox—A selection of small molecules to study human spermatozoa” (PLOS ONE, 2024)
